From patent US11793849B2, “Method of Chinese herbal medicine extract used for treating multiple diseases caused by drug resistant bacteria infection” (priority 2016, dated 2023)
Converted amounts (≈) assume the structure as drawn. Read-outs that look alike come from different tables or passages of the source.

What was measured:
[1] = test system: MDRAB; assay: MIC determination, microdilution broth method; type: cell-based, Acinetobacter baumannii
Description: Determination methods of a Minimal Inhibitory Concentration (MIC) and a Minimum Bactericidal Concentration (MBC) of a test product: the MIC and the MBC of the Pithecellobium clypearia Benth water or ethanol extract to the MDRAB are determined by a microdilution broth method. And it is operated by referring to the microdilution broth method recommended by National Committee for Clinical Laboratory Standards (NCCLS).

[2] = test system: ATCC27853; assay: MIC determination, control strain; type: cell-based; conditions: read-out: MIC
Description: Determination methods of a Minimal Inhibitory Concentration (MIC) and a Minimum Bactericidal Concentration (MBC) of a test product: the MIC and the MBC of the Pithecellobium clypearia Benth water or ethanol extract to the MDRAB are determined by a microdilution broth method.

[3] = test system: MDRAB; assay: Checkerboard assay (combined-use MIC, FIC); type: cell-based, Acinetobacter baumannii; conditions: for FIC, all strains / MIC50 of the antibiotic after combined use / reduction of the antibiotic's MIC50 vs single use / reduction of the antibiotic's MIC90 vs single use / share of strains with FIC ≤ 0.5: 20 MDRABs; for MIC: Acinetobacter baumannii, read-out: single-use MIC
Description: Test methods of the sensibilization effects of the test product to similar antibiotics: it is operated by referring to a checkerboard assay recommended by NCCLS.
The checkerboard assay is performed in a 96-pore sterile culture plate.
Calculation of a Fractional Inhibitory Concentration (FIC): FIC=S20b combined-use MIC/S20b single-use MIC+antibiotic combined-use MIC/antibiotic single-use MIC. By calculating the FIC, the combined antibacterial interaction between the EA and the antibiotic is evaluated, with synergistic effect for FIC≤0.5, additive effect for 0.5<FIC≤1, indifferent effect for 1<FIC≤2 and antagonistic effect for FIC>2. According to a sterile growth pore, the optimum concentration ratio between the EA and the antibiotic is founded out. At last, the effect of the EA to strengthen the efficacy of the antibiotic is evaluated.

[4] = antibiotic with 60% ethanol extract
[5] = antibiotic with 95% ethanol extract
[6] = antibiotic with EA (10% ethanol extract)
[7] = antibiotic with EA (water extract)

CN(C)[C@@H]1C(O)=C(C(N)=O)C(=O)[C@@]2(O)C(O)=C3C(=O)c4c(O)cccc4[C@@](C)(O)[C@H]3C[C@@H]12 [TE, Tetracycline]
MIC ([1]; Acinetobacter baumannii, strain A4, EA=60% ethanol extract, read-out: MIC): 8 µg/mL (≈ 18 µM)
MIC ([1]; Acinetobacter baumannii, strain A4, EA=95% ethanol extract, read-out: MIC): 8 µg/mL (≈ 18 µM)
MIC ([1]; Acinetobacter baumannii, strain A4, single use, EA=10% ethanol extract, read-out: MIC): 8 µg/mL (≈ 18 µM)
MIC ([1]; Acinetobacter baumannii, strain A4, single use, EA=water extract, read-out: MIC): 8 µg/mL (≈ 18 µM)
MIC ([1]; Acinetobacter baumannii, strain A5, EA=60% ethanol extract, read-out: MIC): 32 µg/mL (≈ 72 µM)
MIC ([1]; Acinetobacter baumannii, strain A5, EA=95% ethanol extract, read-out: MIC): 32 µg/mL (≈ 72 µM)
MIC ([1]; Acinetobacter baumannii, strain A5, single use, EA=10% ethanol extract, read-out: MIC): 32 µg/mL (≈ 72 µM)
MIC ([1]; Acinetobacter baumannii, strain A5, single use, EA=water extract, read-out: MIC): 32 µg/mL (≈ 72 µM)
MIC ([1]; strain A15, single use, EA=10% ethanol extract): 1024 µg/mL (≈ 2300 µM)
MIC ([1]; strain A15, single use, EA=water extract): 1024 µg/mL (≈ 2300 µM)
MIC ([2]; EA=10% ethanol extract): 8 µg/mL (≈ 18 µM)
MIC ([2]; EA=60% ethanol extract): 8 µg/mL (≈ 18 µM)
MIC ([2]; EA=95% ethanol extract): 8 µg/mL (≈ 18 µM)
MIC ([2]; EA=water extract): 8 µg/mL (≈ 18 µM)
FIC, all strains [3, 4]: ≤ 1
MIC50 of the antibiotic after combined use [3, 4]: 32 µg/mL
reduction of the antibiotic's MIC50 vs single use [3, 4]: 87.5%
reduction of the antibiotic's MIC90 vs single use [3, 4]: 75%
share of strains with FIC ≤ 0.5 [3, 4]: 50%
FIC, all strains [3, 5]: ≤ 1
MIC50 of the antibiotic after combined use [3, 5]: 32 µg/mL
reduction of the antibiotic's MIC50 vs single use [3, 5]: 87.5%
reduction of the antibiotic's MIC90 vs single use [3, 5]: 75%
share of strains with FIC ≤ 0.5 [3, 5]: 35%
FIC, all strains [3, 6]: ≤ 1
MIC50 of the antibiotic after combined use [3, 6]: 64 µg/mL
reduction of the antibiotic's MIC50 vs single use [3, 6]: 75%
reduction of the antibiotic's MIC90 vs single use [3, 6]: 50%
share of strains with FIC ≤ 0.5 [3, 6]: 45%
FIC, all strains [3, 7]: ≤ 1
MIC50 of the antibiotic after combined use [3, 7]: 64 µg/mL
reduction of the antibiotic's MIC50 vs single use [3, 7]: 75%
reduction of the antibiotic's MIC90 vs single use [3, 7]: 75%
share of strains with FIC ≤ 0.5 [3, 7]: 35%
MIC ([3]; strain A4, EA=60% ethanol extract): 8 µg/mL
MIC ([3]; strain A4, EA=95% ethanol extract): 8 µg/mL
MIC ([3]; strain A5 (printed AS in tables A43, A45), EA=95% ethanol extract): 32 µg/mL
MIC ([3]; strain A5, EA=60% ethanol extract): 32 µg/mL
MIC ([3]; strain A15, EA=60% ethanol extract): 1020 µg/mL
MIC ([3]; strain A15, EA=95% ethanol extract): 1020 µg/mL
combined-use MIC ([3]; strain A1, EA (10% ethanol extract) with TE): 1 µg/mL
combined-use MIC ([3]; strain A1, EA (60% ethanol extract) + TE combined): 1 µg/mL
combined-use MIC ([3]; strain A1, EA (95% ethanol extract) + TE combined): 1 µg/mL
combined-use MIC ([3]; strain A1, EA (water extract) with TE): 1 µg/mL
combined-use MIC ([3]; strain A2, EA (10% ethanol extract) with TE): 64 µg/mL
combined-use MIC ([3]; strain A2, EA (60% ethanol extract) + TE combined): 64 µg/mL
combined-use MIC ([3]; strain A2, EA (95% ethanol extract) + TE combined): 64 µg/mL
combined-use MIC ([3]; strain A3, EA (10% ethanol extract) with TE): 64 µg/mL
combined-use MIC ([3]; strain A3, EA (60% ethanol extract) + TE combined): 32 µg/mL
combined-use MIC ([3]; strain A3, EA (95% ethanol extract) + TE combined): 32 µg/mL
combined-use MIC ([3]; strain A3, EA (water extract) with TE): 64 µg/mL
combined-use MIC ([3]; strain A4, EA (10% ethanol extract) with TE): 2 µg/mL
combined-use MIC ([3]; strain A4, EA (60% ethanol extract) + TE combined): 1 µg/mL
combined-use MIC ([3]; strain A4, EA (95% ethanol extract) + TE combined): 1 µg/mL
combined-use MIC ([3]; strain A4, EA (water extract) with TE): 2 µg/mL
combined-use MIC ([3]; strain A5, EA (10% ethanol extract) with TE): 4 µg/mL
combined-use MIC ([3]; strain A5, EA (60% ethanol extract) + TE combined): 8 µg/mL
combined-use MIC ([3]; strain A5, EA (95% ethanol extract) + TE combined): 8 µg/mL
combined-use MIC ([3]; strain A5, EA (water extract) with TE): 4 µg/mL
combined-use MIC ([3]; strain A6, EA (10% ethanol extract) with TE): 64 µg/mL
combined-use MIC ([3]; strain A6, EA (water extract) with TE): 64 µg/mL
combined-use MIC ([3]; strain A8, EA (10% ethanol extract) with TE): 64 µg/mL
combined-use MIC ([3]; strain A8, EA (60% ethanol extract) + TE combined): 32 µg/mL
combined-use MIC ([3]; strain A8, EA (95% ethanol extract) + TE combined): 32 µg/mL
combined-use MIC ([3]; strain A9, EA (10% ethanol extract) with TE): 32 µg/mL
combined-use MIC ([3]; strain A9, EA (60% ethanol extract) + TE combined): 32 µg/mL
combined-use MIC ([3]; strain A9, EA (95% ethanol extract) + TE combined): 32 µg/mL
combined-use MIC ([3]; strain A9, EA (water extract) with TE): 64 µg/mL
combined-use MIC ([3]; strain A10, EA (10% ethanol extract) with TE): 32 µg/mL
combined-use MIC ([3]; strain A10, EA (60% ethanol extract) + TE combined): 32 µg/mL
combined-use MIC ([3]; strain A10, EA (95% ethanol extract) + TE combined): 32 µg/mL
combined-use MIC ([3]; strain A10, EA (water extract) with TE): 64 µg/mL
combined-use MIC ([3]; strain A11, EA (10% ethanol extract) with TE): 64 µg/mL
combined-use MIC ([3]; strain A11, EA (60% ethanol extract) + TE combined): 32 µg/mL
combined-use MIC ([3]; strain A11, EA (95% ethanol extract) + TE combined): 32 µg/mL
combined-use MIC ([3]; strain A11, EA (water extract) with TE): 64 µg/mL
combined-use MIC ([3]; strain A14, EA (60% ethanol extract) + TE combined): 32 µg/mL
combined-use MIC ([3]; strain A14, EA (95% ethanol extract) + TE combined): 32 µg/mL
combined-use MIC ([3]; strain A14, EA (water extract) with TE): 32 µg/mL
combined-use MIC ([3]; strain A15, EA (60% ethanol extract) + TE combined): 64 µg/mL
combined-use MIC ([3]; strain A15, EA (95% ethanol extract) + TE combined): 64 µg/mL
combined-use MIC ([3]; strain A15, EA (water extract) with TE): 64 µg/mL
combined-use MIC ([3]; strain A16, EA (water extract) with TE): 64 µg/mL
combined-use MIC ([3]; strain A17, EA (10% ethanol extract) with TE): 64 µg/mL
combined-use MIC ([3]; strain A18, EA (60% ethanol extract) + TE combined): 64 µg/mL
combined-use MIC ([3]; strain A19, EA (water extract) with TE): 64 µg/mL
combined-use MIC ([3]; strain A20, EA (60% ethanol extract) + TE combined): 32 µg/mL
combined-use MIC ([3]; strain A20, EA (95% ethanol extract) + TE combined): 32 µg/mL
combined-use MIC ([3]; strain A20, EA (water extract) with TE): 64 µg/mL
